From the NIST ThermoML archive (doi:10.1016/j.jct.2014.07.003)
± gives the expanded uncertainty stated by the source.

Test: mn = molality of the nth substance listed, in mol/kg
Settings: 99 kPa, Liquid, Alternating current cell with electrodes

CCCCCCCCCCCC[N+](C)(C)C.[Br-] [dodecyltrimethylammonium bromide] + O
electrical conductivity [S/m]
Settings	303.15 K	308.15 K	313.15 K	318.15 K
m1 = 0.0015	–	0.0153 ± 0.0064	0.0169 ± 0.007	0.018 ± 0.0073
m1 = 0.003	–	0.0286 ± 0.0061	0.032 ± 0.0067	0.034 ± 0.0069
m1 = 0.0045	–	0.042 ± 0.0062	0.0469 ± 0.0066	0.049 ± 0.007
m1 = 0.0059	–	0.0547 ± 0.0062	0.0605 ± 0.0067	0.0645 ± 0.0067
m1 = 0.0073	–	0.0675 ± 0.0061	0.0749 ± 0.0066	0.0771 ± 0.0063
m1 = 0.0087	–	0.0795 ± 0.0057	0.088 ± 0.0064	0.0905 ± 0.0063
m1 = 0.0101	–	0.0903 ± 0.0055	0.101 ± 0.0062	0.103 ± 0.0061
m1 = 0.0116	–	0.102 ± 0.0056	0.114 ± 0.006	0.116 ± 0.006
m1 = 0.013	–	0.113 ± 0.0055	0.126 ± 0.0054	0.128 ± 0.0055
m1 = 0.0144	–	0.123 ± 0.005	0.135 ± 0.0046	0.138 ± 0.0049
m1 = 0.0157	0.129 ± 0.0039	0.131 ± 0.0042	0.142 ± 0.0039	0.145 ± 0.0042
m1 = 0.017	0.134 ± 0.0035	0.136 ± 0.0036	0.146 ± 0.0036	0.15 ± 0.0035
m1 = 0.0184	0.137 ± 0.0033	0.14 ± 0.0033	0.15 ± 0.0035	0.154 ± 0.0034
m1 = 0.0197	0.14 ± 0.0033	0.142 ± 0.0033	0.154 ± 0.0033	0.158 ± 0.0034
m1 = 0.021	0.143 ± 0.0033	0.145 ± 0.0033	0.157 ± 0.0032	0.161 ± 0.0033
m1 = 0.0223	0.146 ± 0.0033	0.148 ± 0.0034	0.159 ± 0.0033	0.163 ± 0.0033
m1 = 0.0236	0.149 ± 0.0032	0.152 ± 0.0034	0.162 ± 0.0032	0.167 ± 0.0033
m1 = 0.0249	0.151 ± 0.0032	0.154 ± 0.0031	0.164 ± 0.0032	0.17 ± 0.0032
m1 = 0.0274	0.155 ± 0.0031	0.158 ± 0.0032	0.168 ± 0.0031	0.174 ± 0.0032
m1 = 0.0286	0.157 ± 0.0032	0.16 ± 0.0032	0.17 ± 0.0032	0.177 ± 0.0032
m1 = 0.0298	0.159 ± 0.0031	0.162 ± 0.0037	0.172 ± 0.0031	0.179 ± 0.0032
